The target in one experiment is Carbonic anhydrase 9 (Homo sapiens, UniProt Q16790). The experiment can be described thus: Inhibition of recombinant human carbonic anhydrase 9 preincubated for 15 mins by phenol red dye based stopped flow CO2 hydration assay.
For experiment [1], the system named is MDA-MB-231. In words: Cytotoxicity against human MDA-MB-231 cells assessed as reduction in cell viability at 3 uM after 48 hrs under normoxia condition by MTT assay relative to control. Type of experiment: functional. (Formazan colour is commonly taken as a measure of viable cells.)
Experiment [2] has as its system MDA-MB-231. In words: Cytotoxicity against human MDA-MB-231 cells assessed as reduction in cell viability at 10 uM after 48 hrs under normoxia condition by MTT assay. Type of experiment: functional, cell-based.
Experiment [3] deals with MDA-MB-231. In words: Cytotoxicity against human MDA-MB-231 cells assessed as reduction in cell viability at 3 uM after 48 hrs under hypoxia condition by MTT assay relative to control. It counts as functional.
In experiment [4] the test system is MDA-MB-231. In words: Cytotoxicity against human MDA-MB-231 cells assessed as reduction in cell viability at 30 uM after 48 hrs under hypoxia condition by MTT assay relative to control. Type of experiment: functional.
For experiment [5], the system named is MDA-MB-231. The experiment can be described thus: Cytotoxicity against human MDA-MB-231 cells assessed as reduction in cell viability at 3 to 10 uM after 48 hrs under normoxia condition by MTT assay. It counts as functional, cell-based.

Each structure is given as a SMILES string. pKi: −log10 of the molar value. Calls of active or inactive are those of the source. The calls are words filed in the database; no cut-off is given here.

One may read the pKi as the Ki on a negative log10 scale, so that one unit is a factor of ten.

Regarding `Cc1ccc([Te]CC(O)COc2ccc(S(N)(=O)=O)cc2)cc1` (centres undefined), at Carbonic anhydrase 9, the negative-log Ki (pKi) was 6.93.
In the case of `CCCC[Te]CC(O)COc1ccc(S(N)(=O)=O)cc1` (centres undefined), on Carbonic anhydrase 9, the negative logarithm of the Ki (pKi) is 6.48.
On to `Cc1ccccc1[Te]CC(O)COc1ccc(S(N)(=O)=O)cc1` (centres undefined), for which the pKi on Carbonic anhydrase 9 is 8.02. For the same compound, the Activity in the experiment on MDA-MB-231 [1] is more than 50%; in the experiment on MDA-MB-231 [3], 32%; in the experiment with MDA-MB-231 [4], more than 50%. Besides, the outcome in the experiment on MDA-MB-231 [2] was Active.
Regarding `CC[Te]CC(O)COc1ccc(S(N)(=O)=O)cc1` (centres undefined), the negative logarithm of the Ki (pKi) at Carbonic anhydrase 9 was 7.39.
Take `COc1ccc([Te]CC(O)COc2ccc(S(N)(=O)=O)cc2)cc1` (centres undefined): the negative-log Ki (pKi) at Carbonic anhydrase 9 is 8.11.
Take `NS(=O)(=O)c1ccc(OCC(O)C[Te]c2ccccc2)cc1` (centres undefined): on Carbonic anhydrase 9, the pKi is 7.83.
Regarding `NS(=O)(=O)c1ccc(OCC(O)C[Te]c2ccc3ccccc3c2)cc1` (centres undefined), the pKi on Carbonic anhydrase 9 was 8.19. Moreover, the Activity in the experiment with MDA-MB-231 [4] turned out to be 90%. Also, the outcome with MDA-MB-231 [5] was Active.
As to `NS(=O)(=O)c1ccc(OCC(O)C[Te]CC(O)COc2ccc(S(N)(=O)=O)cc2)cc1` (centres undefined), the pKi at Carbonic anhydrase 9 was 6.09.

Source of the values: ChEMBL document CHEMBL4359874, “Synthesis of novel tellurides bearing benzensulfonamide moiety as carbonic anhydrase inhibitors with antitumor activity” (Eur J Med Chem, 2019).
